Results: patent US7897591B2, “Method of treating fatty liver disease” (priority 2005, dated 2011)

Assays:
C57BL/6 mice [1] = test: Serum liver function tests (AP, ALT, total and direct bilirubin) in HCD mouse model; assay type: in vivo
Experimental: Experiments were performed on 5-6 week-old C57BL/6 mice (Jackson Laboratories, Bar Harbor, Me.). The animals, in groups of five, were housed in a barrier room and were acclimated to their environment for at least 72 hours prior to the initiation of each experiment. Animal protocols complied with the NIH Animal Research Advisory Committee guidelines and were approved by the Children's Hospital Boston Animal Care and Use Committee. Control animals (n=5) received normal chow and water ad libitum. All animals in the experimental groups were fed a fat-free, high carbohydrate liquid diet (HCD) ad libitum placed in one bottle per cage as previously described (3, 62). No additional sources of nutrition or hydration were provided. The HCD liquid solution contained 20% dextrose, a commercial mixture of 2% essential and nonessential amino acids (TrophAmine, B. Braun Medical, Irvine, Calif.), 2 ml trace elements (Trace Elements Injection 4, USP—Pediatric, American Regent Shirley, N.Y.), and 5 ml multivitamins (M.V.I. Pediatric™, Mayne Pharma, Paramus, N.J.). Each liter of HCD contained 30 meq sodium, 20 meq potassium chloride, 15 meq calcium, 10 meq magnesium, and 10 mM phosphate. The bottles were replaced daily with fresh HCD solution. HCD animals (n=5) received HCD only and no additional treatment for 19 days. The HCD+MAR animals (n=15) additionally received 100 mg/kg of Marimastat™ in 0.45% methylcellulose (Sigma-Aldrich Corporation, St. Louis, Mo.) vehicle twice daily via orogastric gavage. The animals were individually weighed every third day and at sacrifice. Mice were anesthetized with 300 μl of 2.5% Avertin (Tribromoethanol, Sigma-Aldrich Corporation, St. Louis, Mo.) by intraperitoneal injection. Approximately 400 μl of blood was collected from each mouse via retro-orbital puncture. The specimens were then placed into serum separator tubes (Becton Dickinson, Franklin Lakes, N.J.), and centrifuged at 4° C. at 8000 rpm for 10 minutes to separate serum. Serum was frozen at −80° C. and delivered to the Clinical Laboratory at Children's Hospital Boston for measurement of aspartate aminotransferase (AST), alanine aminotransferase (ALT), alkaline phosphatase (AP), and total (TB) and direct bilirubin (DB) levels. Furthermore, a fatty acid profile was performed on these samples and TNF-α soluble receptor II levels were determined as described below.

C57BL/6 mice [2] = test: General observations: survival, stool, body weight, macroscopic liver appearance and weight; assay type: in vivo, mouse
Experimental: Experiments were performed on 5-6 week-old C57BL/6 mice (Jackson Laboratories, Bar Harbor, Me.). The animals, in groups of five, were housed in a barrier room and were acclimated to their environment for at least 72 hours prior to the initiation of each experiment. Animal protocols complied with the NIH Animal Research Advisory Committee guidelines and were approved by the Children's Hospital Boston Animal Care and Use Committee.
(§1) Control animals (n=5) received normal chow and water ad libitum. All animals in the experimental groups were fed a fat-free, high carbohydrate liquid diet (HCD) ad libitum placed in one bottle per cage as previously described (3, 62). No additional sources of nutrition or hydration were provided. The HCD liquid solution contained 20% dextrose, a commercial mixture of 2% essential and nonessential amino acids (TrophAmine, B. Braun Medical, Irvine, Calif.), 2 ml trace elements (Trace Elements Injection 4, USP—Pediatric, American Regent Shirley, N.Y.), and 5 ml multivitamins (M.V.I. Pediatric™, Mayne Pharma, Paramus, N.J.). Each liter of HCD contained 30 meq sodium, 20 meq potassium chloride, 15 meq calcium, 10 meq magnesium, and 10 mM phosphate. The bottles were replaced daily with fresh HCD solution. HCD animals (n=5) received HCD only and no additional treatment for 19 days. The HCD+MAR animals (n=15) additionally received 100 mg/kg of Marimastat™ in 0.45% methylcellulose (Sigma-Aldrich Corporation, St. Louis, Mo.) vehicle twice daily via orogastric gavage. The animals were individually weighed every third day and at sacrifice.
We then performed a midline laparotomy to observe, excise, and weigh the liver. Approximately one half of the liver was fixed in 10% formalin at 4° C. overnight, washed with phosphate buffered saline, and then embedded in paraffin. After cutting 5 μm sections, slides were stained at the Department of Pathology, Children's Hospital Boston with H&E to examine cellular architecture and lipid accumulation, and with periodic acid-Schiff (PAS) to identify the presence of glycogen.

PPAR-α = test: Immunoprecipitation and SDS-PAGE of PPAR-α phosphorylation; assay type: in vivo, mouse; details: HCD+MAR group vs control and HCD-only
Experimental: as §1, with “sacrifice. Immunoprecipitation was performed according to the Protein-G Immunoprecipitation Kit (Sigma-Aldrich Corporation, St. Louis, Mo.) protocol. […] The sample was then centrifuged and the supernatant was, analyzed by SDS-PAGE as detailed above.” for “sacrifice.”

Compound: CNC(=O)[C@@H](NC(=O)[C@H](CC(C)C)[C@H](O)C(=O)NO)C(C)(C)C [Marimastat]
- total bilirubin level (C57BL/6 mice [1]; HCD+MAR group compared to HCD-only group): significantly lower
- serum alanine amino transferase (ALT) level (C57BL/6 mice [1]; HCD+MAR group vs HCD-only, P<0.001): lower
- serum alkaline phosphatase (AP) level (C57BL/6 mice [1]; HCD+MAR group, P<0.001): significantly lower
- direct bilirubin (DB) level (C57BL/6 mice [1]; all 15 mice in HCD+MAR group, P<0.001): 0
- survival (C57BL/6 mice [2]; 19 day protocol): All animals survived
- liver weight (C57BL/6 mice [2]; mouse, in vivo): no significant difference
- stool / bowel integrity (C57BL/6 mice [2]; mouse, in vivo, 100 mg/kg): soft stool without gross signs of loss of bowel integrity
- phosphorylation of PPAR-α (PPAR-α): marked increase
